Test results published in PubChem BioAssay (NCI).
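GI50 is the concentration that inhibits growth by half. TGI: concentration producing complete growth inhibition.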

What was measured:
Experiment in all cases: NCI anticancer screen, dose series, 384-well format
NCI-H460 NSCLC = test system: NCI-H460 NSCLC
OVCAR-8 ovarian = test system: OVCAR-8 ovarian
SR leukemia = test system: SR leukemia
HT29 colon = test system: HT29 colon
SNB-19 CNS = test system: SNB-19 CNS
U251 glioblastoma = test system: U251 glioblastoma
ACHN renal = test system: ACHN renal
PC-3 prostate = test system: PC-3 prostate
M14 melanoma = test system: M14 melanoma
NCI/ADR-RES ovarian = test system: NCI/ADR-RES ovarian
SF-268 CNS = test system: SF-268 CNS
K-562 leukemia = test system: K-562 leukemia
LOX IMVI melanoma = test system: LOX IMVI melanoma

Structure (SMILES): C=CC(=O)N1CCC(CNc2ncnc(N)c2-c2ccc(Oc3ccccc3)cc2)CC1
- GI50 (NCI-H460 NSCLC): 19.6 µM
- TGI (NCI-H460 NSCLC): 41.2 µM
- GI50 (OVCAR-8 ovarian): 21.2 µM
- TGI (OVCAR-8 ovarian): > 62.2 µM
- GI50 (SR leukemia): 8.25 µM
- TGI (SR leukemia): 21.3 µM
- GI50 (HT29 colon): 25 µM
- TGI (HT29 colon): 63.1 µM
- GI50 (SNB-19 CNS): 23.4 µM
- TGI (SNB-19 CNS): 71.7 µM
- GI50 (U251 glioblastoma): 18.6 µM
- TGI (U251 glioblastoma): 40.6 µM
- GI50 (ACHN renal): 25.4 µM
- TGI (ACHN renal): 66.4 µM
- GI50 (PC-3 prostate): 18.5 µM
- TGI (PC-3 prostate): 41.2 µM
- GI50 (M14 melanoma): 29.6 µM
- TGI (M14 melanoma): 77.4 µM
- GI50 (NCI/ADR-RES ovarian): 15.9 µM
- TGI (NCI/ADR-RES ovarian): 34.5 µM
- GI50 (SF-268 CNS): 17 µM
- TGI (SF-268 CNS): 37.9 µM
- GI50 (K-562 leukemia): 15.2 µM
- TGI (K-562 leukemia): 29.5 µM
- GI50 (LOX IMVI melanoma): 17.2 µM
- TGI (LOX IMVI melanoma): 31 µM
